# Data from patent publication US20100291592A1, “NOVEL MARKER FOR SENSITIVITY AGAINST SULFONAMIDE COMPOUND” (priority 2006, published 2010).
# Columns and labels:
# [1] = tested on: human colon cancer cell line (HCT116); experiment: Anti-tumor effect on subcutaneous transplant model of HCT116; assay type: in vivo, nude mouse; details: 6.25-200 mg/kg orally twice a day for 14 days
# Protocol: Human non-small-cell lung cancer cell line PC9 (obtained from Immuno-Biological laboratories Co., Ltd.), human non-small-cell lung cancer cell line A549 (obtained from Dainippon Pharmaceutical), human colon cancer cell line WiDr (obtained from Dainippon Pharmaceutical) and human colon cancer cell line HCT116 (obtained from ATCC) were cultured in RPMI1640 (containing 10% FBS) in a 5% carbon dioxide incubator at 37° C. to about 80% confluence, and the cells were collected with trypsin-EDTA. Using a phosphate buffer for PC9, WiDr and HCT116 and a 50% matrigel-containing phosphate buffer for A549, 5×10^7 cells/mL suspensions were prepared, respectively. Then, 0.1 mL each of the resulting cell suspensions was subcutaneously transplanted to the side of a nude mouse.
# For PC9, 8 days after the transplantation, E7820 was orally administered for 50 mg/kg, 100 mg/kg or 200 mg/kg twice a day for 14 days. For A549, 24 days after the transplantation, E7820 was orally administered for 50 mg/kg or 200 mg/kg twice a day for 7 days. For WiDr, 11 days after the transplantation, E7820 was orally administered for 50 mg/kg, 100 mg/kg or 200 mg/kg twice a day for 14 days. […]
# The major and minor axes of tumors were measured with Digimatic caliper (Mitsutoyo), and tumor volumes and relative tumor volumes were calculated according to the following formulae. […]
# EGFR1 [2] = experiment: EGFR1 expression level in cultured A549 (flow cytometry); assay type: cell-based, human; details: for EGFR1 expression level (% of control) A549: two days of culture, flow cytometry
# Protocol: (§1) PC9 or A549 was suspended in RPMI1640 (containing 10% FBS) to 1×10^5 cells/ml. Then, 1 ml each of these suspensions was placed into each well of a 6-well plate and cultured in a 5% carbon dioxide incubator at 37° C. On the following day, 1 ml each of E7820 culture dilutions at respective concentrations (0-20 μM) was added to the cells in each well for further culture. After two days of culture, the cells were collected with trypsin-EDTA according to a routine procedure, which were suspended in PBS containing 0.5% BSA. Subsequently, an anti-EGFR1 antibody (BD Biosciences) was added to these suspensions and incubated at 4° C. for 30 minutes. Centrifugation and washing with PBS were carried out according to routine procedures to remove an excessive amount of the antibody. Then, an RPE-labeled anti-mouse IgG antibody was added to these suspensions and incubated at 4° C. for 30 minutes. Centrifugation and washing with PBS were carried out according to routine procedures to remove an excessive amount of the antibody. Finally, the EGFR1 expression level in PC9 and A549 were determined with FACSCalibur (Japan Becton, Dickinson and Company).
# EGFR1 [3] = experiment: EGFR1 expression level in cultured PC9 (flow cytometry); assay type: cell-based, human; details: for EGFR1 expression level (% of control) PC9: two days of culture
# Protocol: as §1
# EGFR1 [4] = experiment: EGFR1 expression level in HCT116 subcutaneous transplant model (western blotting); assay type: in vivo, nude mouse; details: for EGFR1 expression level (% of control) HCT116: HCT116 tumor in nude mouse
# Protocol: HCT116 or WiDr was cultured in RPMI1640 (containing 10% FBS) in a 5% carbon dioxide incubator to about 80% confluence. The cells were collected with trypsin-EDTA according to a routine procedure and 5×10^7 cells/mL suspensions were prepared with a phosphate buffer. Then, 0.1 mL each of the resulting suspension was subcutaneously transplanted to the side of a nude mouse.
# For HCT116, 23 days after the transplantation, E7820 was orally administered for 12.5 mg/kg, 50 mg/kg or 200 mg/kg twice a day for 3 days. On the other hand, for WiDr, 18 days after the transplantation, E7820 was orally administered for 50 mg/kg or 200 mg/kg twice a day for 7 days. Four days after the start of administration for HCT116 and 8 days after the start of administration for WiDr, tumors were removed to prepare tumor cell lysates with various protease inhibitors and a cell lysis solution containing 10% glycerol and 1% Triton X-100 in ice. For each tumor cell lysate, an equal amount of protein was fractionated by SDS-PAGE and transferred onto a nitrocellulose membrane (Hybond ECL, Amersham Biosciences). Then, western blotting was performed by using an anti-EGFR1 antibody (Santa Cruz Biotechnology) and horse radish peroxidase-labeled anti-mouse IgG antibody (secondary antibody) (Cell Signaling) according to a routine procedure.
# Detection and quantification of each band were carried out as follows. First, each band was forced to chemically develop a color with Chemiluminescent Substrate (PIERCE), which was then captured as a digital image with Image Master VDS-CL (Amersham Pharmacia Biotech, Tokyo). The digital images were saved as TIF files and numerically converted with Image Master total Lab (version 1.00, Amersham Pharmacia Biotech, Tokyo).
structure (smiles),measurement,setting,value
"Cc1ccc(NS(=O)(=O)c2cccc(C#N)c2)c2[nH]cc(C#N)c12 [E7820, N-(3-cyano-4-methyl-1H-indole-7-yl)-3-cyanobenzenesulfonamide]",Anti-tumor effect (relative tumor volume),[1],stronger anti-tumor effects
same,EGFR1 expression level (% of control) A549,"EGFR1 [2]; A549, E7820 0.01 μM",93 % of control
same,EGFR1 expression level (% of control) A549,"EGFR1 [2]; A549, E7820 0.03 μM",97 % of control
same,EGFR1 expression level (% of control) A549,"EGFR1 [2]; A549, E7820 0.1 μM",95 % of control
same,EGFR1 expression level (% of control) A549,"EGFR1 [2]; A549, E7820 0.3 μM",91 % of control
same,EGFR1 expression level (% of control) A549,"EGFR1 [2]; A549, E7820 1 μM",80 % of control
same,EGFR1 expression level (% of control) A549,"EGFR1 [2]; A549, E7820 3 μM",64 % of control
same,EGFR1 expression level (% of control) A549,"EGFR1 [2]; A549, E7820 10 μM",73 % of control
same,Effect on EGFR1 expression level (in words),"EGFR1 [2]; cultured A549, flow cytometry",slightly decreased the EGFR1 expression level
same,EGFR1 expression level (% of control) PC9,"EGFR1 [3]; PC9, E7820 0.01 μM",95 % of control
same,EGFR1 expression level (% of control) PC9,"EGFR1 [3]; PC9, E7820 0.03 μM",91 % of control
same,EGFR1 expression level (% of control) PC9,"EGFR1 [3]; PC9, E7820 0.1 μM",80 % of control
same,EGFR1 expression level (% of control) PC9,"EGFR1 [3]; PC9, E7820 0.3 μM",65 % of control
same,EGFR1 expression level (% of control) PC9,"EGFR1 [3]; PC9, E7820 1 μM",49 % of control
same,EGFR1 expression level (% of control) PC9,"EGFR1 [3]; PC9, E7820 3 μM",44 % of control
same,EGFR1 expression level (% of control) PC9,"EGFR1 [3]; PC9, E7820 10 μM",37 % of control
same,Effect on EGFR1 expression level (in words),"EGFR1 [3]; cultured PC9, dose-dependent",greatly decreased the EGFR1 expression level
same,Effect on EGFR1 expression level (in words),"EGFR1 [4]; HCT116 transplanted tumors, dose-dependent",decreased the EGFR1 expression level
same,EGFR1 expression level (% of control) HCT116,EGFR1 [4]; 12.5 mg/kg orally twice a day for 3 days,37 % of control
same,EGFR1 expression level (% of control) HCT116,EGFR1 [4]; 50 mg/kg orally twice a day for 3 days,47 % of control
same,EGFR1 expression level (% of control) HCT116,EGFR1 [4]; 200 mg/kg orally twice a day for 3 days,42 % of control
